Data as given in patent US20240350643A1, “PROTEIN DEGRADATION AGENT” (SUZHOU KINTOR PHARMACEUTICALS, INC., priority 2021, published 2024).

What was measured:
c-Myc protein = target: T1, c-Myc protein (Homo sapiens, UniProt P01106); assay: Ability of compounds to degrade c-Myc protein in HL60 cells (ELISA); type: cell-based; settings: HL-60, 1 μM compound, 24 h, read-out: HL60 cells Protein degradation rate (1 μM)
T1 construct: endogenous in cells; host or cells: HL60 cells

HL60 cells = assay: Anti-proliferation ability of compounds on HL60 cells (CTG); type: cell-based, human; settings: Homo sapiens, HL-60, 72 h, 3 days, CellTiter-Glo, read-out: HL60 cells Proliferation inhibitory activity
Method in brief: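 Proliferation inhibition IC50 derived from CellTiter-Glo luminescence after 3-day compound treatment of HL60 cells plated at 20000 per well, against 0.1% DMSO controls.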

T1 sequence (P01106 whole entry): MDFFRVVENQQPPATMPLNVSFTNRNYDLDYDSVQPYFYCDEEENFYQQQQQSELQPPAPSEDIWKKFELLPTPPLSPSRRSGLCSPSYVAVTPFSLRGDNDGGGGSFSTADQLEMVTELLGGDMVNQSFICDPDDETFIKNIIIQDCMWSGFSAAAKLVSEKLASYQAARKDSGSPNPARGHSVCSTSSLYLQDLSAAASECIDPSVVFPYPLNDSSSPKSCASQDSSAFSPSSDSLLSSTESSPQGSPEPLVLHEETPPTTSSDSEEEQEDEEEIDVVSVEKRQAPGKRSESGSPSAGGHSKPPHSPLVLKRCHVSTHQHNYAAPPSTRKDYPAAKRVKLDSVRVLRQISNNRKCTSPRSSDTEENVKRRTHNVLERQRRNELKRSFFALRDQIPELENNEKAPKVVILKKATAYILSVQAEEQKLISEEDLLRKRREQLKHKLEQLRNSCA

Work on `O=C(Cc1nccc2ccccc12)NCc1ccc(CNCc2ccc3c(c2)C(=O)N(C2CCC(=O)NC2=O)C3=O)cc1` (centres unmarked) [A186] yielded an inhibition at 1 µM (c-Myc protein) of 60 to 90% and an IC50 (HL60 cells) of 32.1 ± 1.3 nM.
Compound `O=C1CCC(N2C(=O)c3ccc(C(=O)NCc4ccc(CN(CCc5cccc6ccccc56)C(=O)C5CC5)cc4)cc3C2=O)C(=O)N1` (centres unmarked) [A81] has an inhibition at 1 µM (c-Myc protein) of 60 to 90% and an IC50 (HL60 cells) of less than 3 nM.
`CC(C)(C)OC(=O)NC[C@H]1CC[C@H](CNC(=O)c2ccc3c(c2)C(=O)N(C2CCC(=O)NC2=O)C3=O)CC1` (some centres unmarked) [A26] showed an inhibition at 1 µM (c-Myc protein) of 30 to 60% and an IC50 (HL60 cells) of 2820 ± 1060 nM.
Compound `CC(C)(NC(=O)c1ccc2c(c1)C(=O)N(C1CCC(=O)NC1=O)C2=O)c1ccc(CNC(=O)Cc2cccc3ccccc23)cc1` (centres unmarked) [A145] has an inhibition at 1 µM (c-Myc protein) of 60 to 90% and an IC50 (HL60 cells) of 117.7 ± 1.1 nM.
`COc1cccc(CC(=O)NCc2ccc(CNC(=O)c3ccc4c(c3)C(=O)N(C3CCC(=O)NC3=O)C4=O)cc2)c1OC` (centres unmarked) [A56] gave an inhibition at 1 µM (c-Myc protein) of 60 to 90% and an IC50 (HL60 cells) of 666 ± 60.2 nM.
With `O=C1CCC(N2Cc3cc(C(=O)NCc4ccc(C5(NC(=O)Cc6cccc7ccccc67)CC5)cc4F)ccc3C2=O)C(=O)N1` (centres unmarked) [A163] the inhibition at 1 µM (c-Myc protein) was 60 to 90% and the IC50 (HL60 cells) was 1.3 ± 0.3 nM.
Compound `O=C(Cn1c2ccccc2c2cccnc21)NCc1cnc(CNC(=O)c2ccc3c(c2)C(=O)N(C2CCC(=O)NC2=O)C3=O)nc1` (centres unmarked) [A131] has an inhibition at 1 µM (c-Myc protein) of 60 to 90% and an IC50 (HL60 cells) of 112 ± 16.5 nM.
`O=C1CCC(N2C(=O)c3ccc(C(=O)NCc4ccc(CNC(=O)C5(c6ccccc6Br)CC5)cc4)cc3C2=O)C(=O)N1` (centres unmarked) [A70] showed an inhibition at 1 µM (c-Myc protein) of 60 to 90% and an IC50 (HL60 cells) of 374 ± 51.1 nM.
Compound `O=C(CN(c1ccccc1)c1ccccc1)NCCCCCCNC(=O)c1ccc2c(c1)C(=O)N(C1CCC(=O)NC1=O)C2=O` (centres unmarked) [A5] has an inhibition at 1 µM (c-Myc protein) of 30 to 60% and an IC50 (HL60 cells) of 391 ± 4.7 nM.
In the case of `O=C(Cn1c2ncccc2c2cccnc21)NCCCCCCNC(=O)c1ccc2c(c1)C(=O)N(C1CCC(=O)NC1=O)C2=O` (centres unmarked) [A4], the inhibition at 1 µM (c-Myc protein) is reported as 10 to 30% and the IC50 (HL60 cells) is reported as 221 ± 54.5 nM.
`O=C(Cc1cccc2ccccc12)NCc1ccc(CNC(=O)c2ccc3c(c2)CN(C2CCC(=O)NC2=O)C3=O)c(C(F)(F)F)c1` (centres unmarked) [A159] was tested, and the inhibition at 1 µM (c-Myc protein) was 60 to 90% and the IC50 (HL60 cells) was 2.2 ± 0.8 nM.
With `O=C(Cc1cccc2ccccc12)NCc1ccc(C(=O)NCc2ccc3c(c2)C(=O)N(C2CCC(=O)NC2=O)C3=O)cc1` (centres unmarked) [A177] the inhibition at 1 µM (c-Myc protein) was 60 to 90% and the IC50 (HL60 cells) was 9.5 nM.
Compound `O=C(Cc1ccccc1)NCc1ccc(CNC(=O)c2ccc3c(c2)C(=O)N(C2CCC(=O)NC2=O)C3=O)cc1` (centres unmarked) [A53] has an inhibition at 1 µM (c-Myc protein) of 60 to 90% and an IC50 (HL60 cells) of 1450 ± 280 nM.
Work on `O=C1CCC(N2C(=O)c3ccc(C(=O)NC[C@H]4CC[C@H](CNC(=O)Nc5cccc6ccncc56)CC4)cc3C2=O)C(=O)N1` (some centres unmarked) [A48] yielded an inhibition at 1 µM (c-Myc protein) of 60 to 90% and an IC50 (HL60 cells) of 3579 ± 29 nM.
For `O=C1CCC(N2Cc3cc(C(=O)NCc4ccc(C5(NC(=O)Cn6c7ccccc7c7cccnc76)CC5)cc4F)ccc3C2=O)C(=O)N1` (centres unmarked) [A164], the inhibition at 1 µM (c-Myc protein) was 60 to 90% and the IC50 (HL60 cells) was 2.4 ± 0.3 nM.
Work on `CN(CCc1cccc2ccccc12)Cc1ccc(CNCc2ccc3c(c2)C(=O)N(C2CCC(=O)NC2=O)C3=O)cc1` (centres unmarked) [A181] yielded an inhibition at 1 µM (c-Myc protein) of 60 to 90% and an IC50 (HL60 cells) of 2 ± 1 nM.
With `O=C1CCC(N2C(=O)c3ccc(C(=O)NCc4ccc(CN(CCn5c6ccccc6c6cccnc65)C5CC5)cc4)cc3C2=O)C(=O)N1` (centres unmarked) [A89] the inhibition at 1 µM (c-Myc protein) was 60 to 90% and the IC50 (HL60 cells) was 81.1 ± 36.9 nM.
`O=C(Cn1c2ccccc2c2cccnc21)NCc1csc(CNC(=O)c2ccc3c(c2)C(=O)N(C2CCC(=O)NC2=O)C3=O)n1` (centres unmarked) [A136] showed an inhibition at 1 µM (c-Myc protein) of 60 to 90% and an IC50 (HL60 cells) of 211 ± 45.9 nM.
`O=C1CCC(N2C(=O)c3ccc(C(=O)NC[C@H]4CC[C@H](CNC(=O)Nc5cccc6ccccc56)CC4)cc3C2=O)C(=O)N1` (some centres unmarked) [A46] was tested, and the inhibition at 1 µM (c-Myc protein) was 60 to 90% and the IC50 (HL60 cells) was 50.2 ± 14 nM.
Work on `O=C(Cc1cccc2ccccc12)NCc1cccc(CNC(=O)c2ccc3c(c2)C(=O)N(C2CCC(=O)NC2=O)C3=O)c1` (centres unmarked) [A37] yielded an inhibition at 1 µM (c-Myc protein) of 30 to 60% and an IC50 (HL60 cells) of 314 nM.
`COc1cccc(CC(=O)NCc2ccc(CNC(=O)c3ccc4c(c3)C(=O)N(C3CCC(=O)NC3=O)C4=O)cc2)c1` (centres unmarked) [A55] was tested, and the inhibition at 1 µM (c-Myc protein) was 60 to 90% and the IC50 (HL60 cells) was 181 ± 32.8 nM.
`O=C(Cc1cccc2ccccc12)NCc1ccc(CNC(=O)c2ccc3c(c2)C(=O)N(C2CCC(=O)NC2=O)C3=O)cc1` (centres unmarked) [A29] showed an inhibition at 1 µM (c-Myc protein) of 60 to 90% and an IC50 (HL60 cells) of 30.1 ± 21.1 nM.
